According to patent US20240173440A1, “HIGH PURITY COPPER RADIOPHARMACEUTICAL COMPOSITIONS AND DIAGNOSTIC AND THERAPEUTIC USES THEREOF” (Nuclidium AG, priority 2022, published 2024):
Read-outs that look alike come from different tables or passages of the source.

How the values were obtained:
[1] = Pharmacokinetics (biodistribution 1-24 h) in non-tumor bearing mice; type: in vivo; conditions: for tissue uptake at 1 h / tissue uptake at 4 h / tissue uptake at 12 h / tissue uptake at 24 h: female, BALB/c, mouse, 200 umol, total radioactivity; for tissue uptake at 1 h: 1 hour after injection; for tissue uptake at 1 h / tissue uptake at 4 h: ^61Cu; for tissue uptake at 4 h: 4 hours after injection; for tissue uptake at 12 h: 12 hours after injection; for tissue uptake at 12 h / tissue uptake at 24 h: ^64Cu; for tissue uptake at 24 h: 24 hours after injection
Method: The biodistribution at the investigate time points was performed as described in the Example 9. The data were combined with the results obtained from the groups of xenografts at 1 hour and 4 hours p.i., as the biodistribution in nude mice was the same as in the healthy mice. The results were expressed as described in the Example 10.

in vivo = conditions: athymic nude Foxn1+Foxn1+, mouse, iv, 200 umol, total radioactivity
Method: The tumors were allowed to grow for 1-3 weeks before commencement of the experiments.
(§1) The mice were randomly distributed in groups and euthanized at 1 and at 4 hours post-injection. The organs of interest were collected, rinsed, blotted, weighed and counted in a gamma counter. The results are expressed as percentage of injected activity per gram (% IA/g), representing the mean±standard deviation of n=4-8 mice per group and they were obtained by extrapolation from counts of an aliquot taken from the injected solution as standard.
The mice were randomly distributed in groups, injected with the radiotracer under investigation and euthanized at 1 and at 4 hours post-injection of the radiotracers under investigation. The organs of interest were collected, rinsed, blotted, weighed and counted in a gamma counter. The results are expressed as percentage of injected activity per gram (% IA/g), representing the mean±standard deviation of all mice per group and they were obtained by extrapolation from counts of an aliquot taken from the injected solution as standard.
The mice were randomly distributed in groups and euthanized at 4 hours post-injection. The organs of interest were collected, rinsed, blotted, weighed, and their respective radioactivity was counted in a gamma counter.

[2] = Lipophilicity, log D by shake-flask method (1-octanol/PBS pH 7.4); type: physicochemical; conditions: Table 17, mean ± SD
Method: The radiotracer (1 μM) was added to a 50:50 pre-saturated mixture of 1-octanol and phosphate buffered saline (PBSpH 7.4). The solution was vortexed for 30 min and then centrifuged at 3,000 rpm to achieve a phase separation. Aliquots from each phase were collected and measured in a gamma-counter. The distribution coefficient was calculated as the average of the logarithmic values of the ratio between the radioactivity in the organic and the PBS phase.
Table 17. Lipophilicity expressed as the log distribution coefficient D (log D(Octanol/PBS pH7.4)) of ^61Cu-radiotracers versus ^68Ga-radiotracers (reference radiotracers).
In a pre-lubricated Eppendorf tube, a pre-saturated mixture of 500 μL of 1-octanol and 500 μL of PBS pH 7.4 (phosphate-buffered saline) were added. An aliquot of […] in 10 μL of the radioligand was added to this mixture, shaken for 30 min, and then centrifuged at 3000 rcf for 10 min to achieve phase separation. Aliquots of 100 μL were removed from the 1-octanol and from the PBS phases, and the activity was measured in a […]. The partition coefficient was calculated as the average log ratio value of the radioactivity in the organic fraction and PBS fraction.

LNCaP xenografts = test: Quantitative biodistribution in LNCaP xenografted mice; type: in vivo; conditions: for Biodistribution Adrenal / Biodistribution Blood / Biodistribution Bone / Biodistribution Heart / Biodistribution Intestine / Biodistribution Kidney / Biodistribution LNCaP-tumor / Biodistribution Liver / Biodistribution Lung / Biodistribution Muscle / Biodistribution Pancreas / Biodistribution Salivary gland / Biodistribution Spleen / Biodistribution Stomach / Ratio Tumor/Blood / Ratio Tumor/Kidney / Ratio Tumor/Liver / Ratio Tumor/Muscles: LNCap xenograft mice
Method: as §1
The biodistribution of the [^61Cu]Cu-NODAGA radiotracers was compared with the reference compounds used in patients under identical experimental conditions. The mice were randomly distributed in groups, injected with the radiotracer under investigation and euthanized at 1 and at 4 hours post-injection of the radiotracers under investigation. The organs of interest were collected, rinsed, blotted, weighed and counted in a gamma counter. The results are expressed as percentage of injected activity per gram (% IA/g), representing the mean±standard deviation of all mice per group and they were obtained by extrapolation from counts of an aliquot taken from the injected solution as standard.

[3] = adrenal, read-out: Biodistribution Adrenal
[4] = blood, read-out: Biodistribution Blood
[5] = femur, read-out: Biodistribution Femur
[6] = heart, read-out: Biodistribution Heart
[7] = intestine, read-out: Biodistribution Intestine
[8] = kidneys, read-out: Biodistribution Kidneys
[9] = liver, read-out: Biodistribution Liver
[10] = lung, read-out: Biodistribution Lung
[11] = muscle, read-out: Biodistribution Muscles
[12] = pancreas, read-out: Biodistribution Pancreas
[13] = pituitary, read-out: Biodistribution Pituitary
[14] = spleen, read-out: Biodistribution Spleen
[15] = stomach, read-out: Biodistribution Stomach

SMILES: C[C@@H](O)[C@@H]1NC(=O)[C@H](CCCCN)NC(=O)[C@@H](Cc2c[nH]c3ccccc23)NC(=O)[C@H](Cc2ccc(O)cc2)NC(=O)[C@@H](NC(=O)[C@@H](Cc2ccccc2)NC(=O)CCC(C(=O)O)N2CCN(CC(=O)O)CCN(CC(=O)O)CC2)CSSC[C@@H](C(=O)N[C@H](CO)[C@@H](C)O)NC1=O (single isomer, unassigned) [[^61/^64Cu]Cu-NODAGA-TOC, metal not drawn]
- tissue uptake at 1 h [1, 3]: 1.06 ± 0.24 %ID/g
- tissue uptake at 4 h [1, 3]: 0.63 ± 0.22 %ID/g
- tissue uptake at 1 h [1, 4]: 0.24 ± 0.08 %ID/g
- tissue uptake at 4 h [1, 4]: 0.04 ± 0.02 %ID/g
- tissue uptake at 12 h [1, 4]: 0.04 ± 0.01 %ID/g
- tissue uptake at 24 h [1, 4]: 0.03 %ID/g
- tissue uptake at 1 h [1, 5]: 0.45 ± 0.14 %ID/g
- tissue uptake at 4 h [1, 5]: 0.28 ± 0.11 %ID/g
- tissue uptake at 24 h [1, 5]: 0.06 ± 0.01 %ID/g
- tissue uptake at 1 h [1, 6]: 0.17 ± 0.03 %ID/g
- tissue uptake at 4 h [1, 6]: 0.07 ± 0.02 %ID/g
- tissue uptake at 12 h [1, 6]: 0.09 ± 0.02 %ID/g
- tissue uptake at 24 h [1, 6]: 0.07 ± 0.02 %ID/g
- tissue uptake at 1 h [1, 7]: 0.96 ± 0.12 %ID/g
- tissue uptake at 4 h [1, 7]: 0.69 ± 0.19 %ID/g
- tissue uptake at 1 h [1, 8]: 17.2 ± 4.46 %ID/g
- tissue uptake at 4 h [1, 8]: 7.64 ± 3.85 %ID/g
- tissue uptake at 1 h [1, 9]: 0.35 ± 0.08 %ID/g
- tissue uptake at 4 h [1, 9]: 0.28 ± 0.08 %ID/g
- tissue uptake at 1 h [1, 10]: 1.07 ± 0.17 %ID/g
- tissue uptake at 4 h [1, 10]: 0.5 ± 0.24 %ID/g
- tissue uptake at 1 h [1, 11]: 0.16 ± 0.05 %ID/g
- tissue uptake at 4 h [1, 11]: 0.07 ± 0.03 %ID/g
- tissue uptake at 12 h [1, 11]: 0.02 ± 0.01 %ID/g
- tissue uptake at 24 h [1, 11]: 0.01 %ID/g
- tissue uptake at 1 h [1, 12]: 2.71 ± 0.4 %ID/g
- tissue uptake at 4 h [1, 12]: 0.6 ± 0.19 %ID/g
- tissue uptake at 24 h [1, 12]: 0.07 ± 0.01 %ID/g
- tissue uptake at 1 h [1, 13]: 3.39 ± 1.11 %ID/g
- tissue uptake at 4 h [1, 13]: 2.71 ± 1.84 %ID/g
- tissue uptake at 1 h [1, 14]: 0.23 ± 0.04 %ID/g
- tissue uptake at 4 h [1, 14]: 0.1 ± 0.03 %ID/g
- tissue uptake at 12 h [1, 14]: 0.1 ± 0.02 %ID/g
- tissue uptake at 24 h [1, 14]: 0.07 ± 0.02 %ID/g
- tissue uptake at 1 h [1, 15]: 2.62 ± 0.48 %ID/g
- tissue uptake at 4 h [1, 15]: 1.35 ± 0.26 %ID/g
- blood clearance ([1]; healthy mice, 1 to 24 hours after injection): very fast blood clearance

SMILES: C[C@@H](O)[C@@H]1NC(=O)[C@H](CCCCN)NC(=O)[C@@H](Cc2c[nH]c3ccccc23)NC(=O)[C@H](Cc2ccc(O)cc2)NC(=O)[C@@H](NC(=O)[C@@H](Cc2ccccc2)NC(=O)CCC(C(=O)O)N2CCN(CC(=O)O)CCN(CC(=O)O)CC2)CSSC[C@@H](C(=O)N[C@H](CO)[C@@H](C)O)NC1=O (single isomer, unassigned) [[^61Cu]Cu-NODAGA-TOC, metal not drawn]
- tissue uptake at 1 h (in vivo; Biodistribution HEK-SST2): 8.88 ± 3.19 %ID/g
- tissue uptake at 1 h (in vivo; Biodistribution Kidney): 12.5 ± 2.25 %ID/g

SMILES: C[C@@H](O)[C@@H]1NC(=O)[C@H](CCCCN)NC(=O)[C@@H](Cc2c[nH]c3ccccc23)NC(=O)[C@H](Cc2ccc(O)cc2)NC(=O)[C@@H](NC(=O)[C@@H](Cc2ccccc2)NC(=O)CCC(C(=O)O)N2CCN(CC(=O)O)CCN(CC(=O)O)CC2)CSSC[C@@H](C(=O)N[C@H](CO)[C@@H](C)O)NC1=O (single isomer, unassigned) [[^68Ga]Ga-NODAGA-TOC, metal not drawn]
- logD ([2]; pH 7.4, shake-flask, read-out: log D(O/PBS pH 7.4)): -2.48 ± 0.3

SMILES: O=C(O)CC[C@H](NC(=O)N[C@@H](CCCCNC(=O)[C@H](Cc1ccc2ccccc2c1)NC(=O)c1ccc(CNC(=O)[C@H](CCC(=O)O)NC(=O)[C@H](CCC(=O)O)NC(=O)c2ccc([18F])nc2)cc1)C(=O)O)C(=O)O [[^18F]PSMA-1007]
- log D(O/PBS pH 7.4) ([2]; shake-flask): −3.02 ± 0.11
- tumor uptake (LNCaP xenografts; 4h p.i., LNCaP xenograft mice, comparison with reference radiotracer, p=0.0145): 6.28±2.19 % IA/g
- Biodistribution Adrenal (LNCaP xenografts; 1 h after injection): 7.18 ± 2.20 % IA/g
- Biodistribution Blood (LNCaP xenografts; 1 h after injection): 0.41 ± 0.11 % IA/g
- Biodistribution Bone (LNCaP xenografts; 1 h after injection): 0.94 ± 0.13 % IA/g
- Biodistribution Heart (LNCaP xenografts; 1 h after injection): 1.25 ± 0.29 % IA/g
- Biodistribution Intestine (LNCaP xenografts; 1 h after injection): 1.04 ± 0.33 % IA/g
- Biodistribution Kidney (LNCaP xenografts; 1 h after injection): 100 ± 17 % IA/g
- Biodistribution LNCaP-tumor (LNCaP xenografts; 1 h after injection): 9.70 ± 2.57 % IA/g
- Biodistribution Liver (LNCaP xenografts; 1 h after injection): 0.93 ± 0.26 % IA/g
- Biodistribution Lung (LNCaP xenografts; 1 h after injection): 2.08 ± 0.24 % IA/g
- Biodistribution Muscle (LNCaP xenografts; 1 h after injection): 0.53 ± 0.09 % IA/g
- Biodistribution Pancreas (LNCaP xenografts; 1 h after injection): 1.32 ± 0.58 % IA/g
- Biodistribution Salivary gland (LNCaP xenografts; 1 h after injection): 2.54 ± 0.72 % IA/g
- Biodistribution Spleen (LNCaP xenografts; 1 h after injection): 11.0 ± 1.1 % IA/g
- Biodistribution Stomach (LNCaP xenografts; 1 h after injection): 0.75 ± 0.15 % IA/g
- Ratio Tumor/Blood (LNCaP xenografts; 1 h after injection): 25.8 ± 11.5
- Ratio Tumor/Kidney (LNCaP xenografts; 1 h after injection): 0.10 ± 0.03
- Ratio Tumor/Liver (LNCaP xenografts; 1 h after injection): 11.3 ± 4.5
- Ratio Tumor/Muscles (LNCaP xenografts; 1 h after injection): 19.2 ± 6.5
- Biodistribution Adrenal (LNCaP xenografts; 4 h after injection): 8.03 ± 2.66 % IA/g
- Biodistribution Blood (LNCaP xenografts; 4 h after injection): 0.17 ± 0.04 % IA/g
- Biodistribution Bone (LNCaP xenografts; 4 h after injection): 0.62 ± 0.11 % IA/g
- Biodistribution Heart (LNCaP xenografts; 4 h after injection): 0.53 ± 0.23 % IA/g
- Biodistribution Intestine (LNCaP xenografts; 4 h after injection): 0.43 ± 0.22 % IA/g
- Biodistribution Kidney (LNCaP xenografts; 4 h after injection): 132 ± 9 % IA/g
- Biodistribution LNCaP-tumor (LNCaP xenografts; 4 h after injection): 6.28 ± 2.19 % IA/g
- Biodistribution Liver (LNCaP xenografts; 4 h after injection): 0.32 ± 0.16 % IA/g
- Biodistribution Lung (LNCaP xenografts; 4 h after injection): 1.61 ± 0.58 % IA/g
- Biodistribution Muscle (LNCaP xenografts; 4 h after injection): 0.27 ± 0.11 % IA/g
- Biodistribution Pancreas (LNCaP xenografts; 4 h after injection): 0.80 ± 0.32 % IA/g
- Biodistribution Salivary gland (LNCaP xenografts; 4 h after injection): 1.62 ± 0.43 % IA/g
- Biodistribution Spleen (LNCaP xenografts; 4 h after injection): 8.33 ± 2.11 % IA/g
- Biodistribution Stomach (LNCaP xenografts; 4 h after injection): 0.47 ± 0.16 % IA/g
- Ratio Tumor/Blood (LNCaP xenografts; 4 h after injection): 42.7 ± 16.4
- Ratio Tumor/Kidney (LNCaP xenografts; 4 h after injection): 0.04 ± 0.01
- Ratio Tumor/Liver (LNCaP xenografts; 4 h after injection): 18.4 ± 8.5
- Ratio Tumor/Muscles (LNCaP xenografts; 4 h after injection): 20.1 ± 2.5
